From PMC7834858 (Antiviral Research, 2020)
Like-named read-outs stand apart in the source and are kept apart here.

Experiments:
SARS-CoV-2 3CLpro = SARS-CoV-2 3CLpro (Severe acute respiratory syndrome coronavirus 2, UniProt P0DTD1); assay type: biochemical
[1] = tested on: human beta-coronavirus OC43–CoV; experiment: OC43-CoV cytopathic effect antiviral assay in HeLa cells; assay type: cell-based
[2] = tested on: human beta-coronavirus OC43–CoV; experiment: OC43-CoV cytopathic effect antiviral assay in MRC-5 cells; assay type: cell-based; settings: MRC5, 120 h, read-out: OC-43 MRC-5 Cells EC50
SARS-CoV-2 = assay type: cell-based
COVID-19 = COVID-19 hospitalized patients; ref Beigel et al., 2020; cited from earlier work
[3] = no reducing agent vs 1 mM GSH vs 1 mM DTT

CCN(CC)C(=S)SSC(=S)N(CC)CC [Disulfiram]
Concentrations at which SARS-CoV-2 3CLpro was inhibited (SARS-CoV-2 3CLpro; absence of reducing agent only): > 30 µM
Effect of reducing conditions on inhibition potency (SARS-CoV-2 3CLpro; [3]): impacted by the reducing condition
Inhibition of SARS-CoV-2 3CLpro activity in SAMDI-MS assay (in words) (SARS-CoV-2 3CLpro; reducing conditions (DTT)): did not inhibit
Antiviral activity against OC43 (in words) [1]: inactive
EC50 [2]: > 100 µM
Inhibition of SARS-CoV-2 replication (in words) (SARS-CoV-2): did not inhibit SARS-CoV-2 replication

O=c1c2ccccc2[se]n1-c1ccccc1 [Ebselen]
Concentrations at which SARS-CoV-2 3CLpro was inhibited (SARS-CoV-2 3CLpro): > 30 µM
Effect of reducing conditions on inhibition potency (SARS-CoV-2 3CLpro): impacted by the reducing condition
Inhibition of SARS-CoV-2 3CLpro activity in SAMDI-MS assay (in words) (SARS-CoV-2 3CLpro): did not inhibit
Antiviral activity against OC43 (in words) [1]: inactive
EC50 [2]: > 100 µM
Inhibition of SARS-CoV-2 replication (in words) (SARS-CoV-2): did not inhibit SARS-CoV-2 replication
Cytotoxicity (in words) (HeLa cells): cytotoxic
Toxicity to Vero cells (in words) (VeroE6 cells): toxic to Vero cells

CCC(CC)COC(=O)[C@H](C)N[P@](=O)(OC[C@H]1O[C@@](C#N)(c2ccc3c(N)ncnn23)[C@H](O)[C@@H]1O)Oc1ccccc1 [Remdesivir]
EC50 [2]: 0.21 µM
Effect on mortality (COVID-19): no significant effect

CC(C)=CC[C@@H](O)C1=CC(=O)c2c(O)ccc(O)c2C1=O [Shikonin]
Effect of reducing conditions on inhibition potency (SARS-CoV-2 3CLpro; [3]): marked loss of inhibition in the presence of DTT or GSH
Inhibition of SARS-CoV-2 3CLpro activity in SAMDI-MS assay (in words) (SARS-CoV-2 3CLpro; reducing conditions (DTT)): failed to inhibit
Inhibition of SARS-CoV-2 3CLpro activity in SAMDI-MS assay (in words) (SARS-CoV-2 3CLpro; reducing conditions (DTT), listed as shikonin): did not inhibit
Antiviral activity against OC43 (in words) [1]: inactive
EC50 [2]: > 100 µM
Inhibition of SARS-CoV-2 replication (in words) (SARS-CoV-2): did not inhibit SARS-CoV-2 replication
Cytotoxicity (in words) (HeLa cells): cytotoxic
Toxicity to Vero cells (in words) (VeroE6 cells): toxic to Vero cells
